Read-outs that look alike come from different tables or passages of the source.

What all share (type): cell-based
One experiment deals with MDA-MB-468. Kind of experiment: CellTiter-Glo cell proliferation inhibition, MDA-MB-468. To be noted: Homo sapiens, MDA-MB-468 (CTG), starting concentration 10 μM; for inhibition at up to 10 µM: read-out: IH % max (maximum inhibition percentage). The source says: (§1) 1. Cell line • (1) Breast cancer cell lines and their culture media: • MCF-7 (ATCC; Cat. No.: HTB-22), a Luminal A breast cancer cell; • TamR-MCF-7 (ATCC; Cat. No.: CRL-3435), a breast cancer cell; • MCF-7 ER^D538G: a Luminal A breast cancer cell obtained by constructing MCF-7 (ATCC; Cat. No.: HTB-22) using CRISPR-Cas9 gene editing technology; • MCF-7 ER^Y537S: a Luminal A breast cancer cell obtained by constructing MCF-7 (ATCC; Cat. No.: HTB-22) using CRISPR-Cas9 gene editing technology; • MDA-MB-231: (manufacturer: Nanjing CoBioer Biosciences Co., Ltd.), a triple-negative breast cancer cell; • MDA-MB-468: (manufacturer: Nanjing CoBioer Biosciences Co., Ltd.), a triple-negative breast cancer cell.
(§2) Herein, the culture medium of MCF-7, TamR-MCF-7, MCF-7 ER^D538G, and MCF-7 ER^Y537S was EMEM; • the culture medium of MDA-MB-231 and MDA-MB-468 was DMEM.
(§3) 2. Reagents • Culture medium EMEM (Gibco, 1964507) • Culture medium DMEM (Gibco, 12430-054) • Fetal bovine serum (Gibco, 10091148) • Penicillin-streptomycin double antibody (Gibco, S110JV) • DPBS (Gibco, 14190-144) • CellTiter-Glo® assay kit (Promega, G7573) • Trypsin (0.25%) (Gibco, 25200-056) • DMSO (Sigma, D2650)
(§4) 3. Instruments • Biosafety cabinet (AIRTECH, BSC-1300A II) • Automated cell counter (Life Technologies, countess II) • Multifunctional microplate reader (Biotek, H1FM) • Orbital shaker (Hangzhou Allsheng Instruments Co., Ltd., OS-100) • XLFIT 5.3 (Inforstack Shanghai Co., Ltd.)
(§5) For this test method, the following experiments were performed in a biosafety cabinet, with the specific steps as follows: • (1) Cells were inoculated in a 96-well plate. One day later, the previous culture medium was poured off, 5 mL of DPBS was added to wash the cells, and then DPBS was pipetted and discarded. An appropriate amount of trypsin was then added. The plate was digested in a 37° C., 5% CO2 cell incubator for about 2 to 5 minutes and then taken out. Anew corresponding culture medium was added, and pipetted up and down to resuspend the cells evenly. The cells were then counted using an automated cell counter. • (2) Each cell was inoculated in columns 1 to 11 of a 96-well plate (Corning, Cat. No.: 3610) at a density of 1,000 or 2,000 cells per well in 100 μL of culture medium, and 100 μL of the corresponding culture medium without cells was added to the wells in column 12. The plate was then placed in a 37° C., 5% CO2 incubator for 24 hours. • (3) The compound of the present disclosure and the control drug fulvestrant (Selleck; Cat. No.: S1191) were then 4-fold serially diluted to 10 dose points starting at 10 μM. 10 μL of the serially diluted compound was pipetted and added to 100 μL of cells in columns 1 to 10, and 10 μL of the corresponding culture medium containing 0.33 v % DMSO was added to both columns 11 and 12. The plate was incubated in a 37° C., 5% CO2 incubator for 6 days or 72 hours (Note: column 11 was used as a MAX well with cells but without compound; column 12 was used as a MIN well without cells […]). • (4) The cell viability detection reagent in the CellTiter-Glo® assay kit was then added to the 96-well plate at 50 μL per well according to the instructions, and shaken on an orbital shaker in the dark for 5 to 10 minutes. The cell viability was then measured using a multifunctional microplate reader. Finally, the inhibition of cell proliferation by the compound of the present disclosure was plotted by XLFIT software, and the IC50 value (half inhibitory concentration) and the IH % max (maximum inhibition percentage) of the compound of the present disclosure were calculated.
(§6) Compounds D64 to D69 were tested for MDA-MB-231 (CTG) and MDA-MB-468 (CTG) with an incubation time of 72 hours in the incubator.

A further experiment has as its system MCF-7 ER^D538G. As to the kind of experiment: CellTiter-Glo cell proliferation inhibition, MCF-7 ER^D538G. To be noted: Homo sapiens, MCF7, 144 h, MCF-7 ER^D538G (CTG), 6 days, starting concentration 10 μM; for inhibition at up to 10 µM: read-out: IH % max (maximum inhibition percentage).
From the text: as §1, §2, §3, §4, §5

The test system of a further experiment is MCF-7 ER^Y537S. As to the kind of experiment: CellTiter-Glo cell proliferation inhibition, MCF-7 ER^Y537S. To be noted: Homo sapiens, MCF7, 144 h; MCF-7 ER^Y537S (CTG), 6 days, starting concentration 10 μM; read-out: IH % max (maximum inhibition percentage).
From the text: as §1, §2, §3, §4, §5

The next experiment concerns TamR-MCF-7. Kind of experiment: CellTiter-Glo cell proliferation inhibition, TamR-MCF-7. To be noted: 144 h; TamR-MCF-7 (CTG), 6 days, starting concentration 10 μM; read-out: IH % max (maximum inhibition percentage).
From the text: as §1, §2, §3, §4, §5

The subject of another experiment is MCF-7. As to the kind of experiment: CellTiter-Glo cell proliferation inhibition, MCF-7 (Effect Example 2). The following applies: Homo sapiens, MCF7, 144 h; MCF-7 (CTG), 6 days, starting concentration 10 μM; read-out: IH % max (maximum inhibition percentage).
From the text: as §1, §2, §3, §4, §5

A further experiment relates to MDA-MB-231. Kind of experiment: CellTiter-Glo cell proliferation inhibition, MDA-MB-231. To be noted: Homo sapiens, MDA-MB-231 (CTG), starting concentration 10 μM; for inhibition at up to 10 µM: read-out: IH % max (maximum inhibition percentage).
From the text: as §1, §2, §3, §4, §5, §6

[1] abbreviates: incubation time 72 hours (D64 to D69).

For the compound `CCN(CCCc1ccc2c(c1)CN(C1CCC(=O)NC1=O)C2=O)CCOc1ccc(Oc2c(-c3ccc(S(C)(=O)=O)cc3)ccc3cc(O)ccc23)cc1` (centres unmarked) [Compound D4, 3-(5-(3-(ethyl(2-(4-((6-hydroxy-2-(4-(methylsulfonyl)phenyl)naphthalen-1-yl)oxy)phenoxy)ethyl)amino)propyl)-1-oxoisoindolin-2-yl)piperidine-2,6-dione], the inhibition at up to 10 µM in the experiment on MDA-MB-468 (144 h, 6 days) came out at 53%; in the experiment with MCF-7 ER^D538G, 80%; in the experiment on MCF-7 ER^Y537S it was 63%; in the experiment on TamR-MCF-7 it was 32%. The IC50 in the experiment with MCF-7 ER^D538G stood at 502 nM.
For the compound `CCN(CCOc1ccc(Oc2c(-c3ccc(S(C)(=O)=O)cc3)ccc3cc(O)ccc23)cc1)CC(=O)N1CCN(c2ccc3c(c2)CN(C2CCC(=O)NC2=O)C3=O)CC1` (centres unmarked) [Compound D7, 3-(5-(4-(N-ethyl-N-(2-(4-((6-hydroxy-2-(4-(methylsulfonyl)phenyl)naphthalen-1-yl)oxy)phenoxy)ethyl)glycyl)piperazin-1-yl)-1-oxoisoindolin-2-yl)piperidine-2,6-dione], the inhibition at up to 10 µM in the experiment on MCF-7 was determined as 49%; in the experiment on MDA-MB-468 (144 h, 6 days), 63%; with MCF-7 ER^D538G, 40%; with MCF-7 ER^Y537S, 60%; in the experiment with TamR-MCF-7, 47%.
With `CS(=O)(=O)c1ccc(-c2ccc3cc(O)ccc3c2Oc2ccc(N3CCN(CC(=O)N4CCN(c5ccc6c(c5)CN(C5CCC(=O)NC5=O)C6=O)CC4)CC3)cc2)cc1` (centres unmarked) [Compound D12, 3-(5-(4-(2-(4-(4-((6-hydroxy-2-(4-(methylsulfonyl)phenyl)naphthalen-1-yl)oxy)phenyl)piperazin-1-yl)acetyl)piperazin-1-yl)-1-oxoisoindolin-2-yl)piperidine-2,6-dione], the inhibition at up to 10 µM with MCF-7 worked out at 45%; in the experiment with MCF-7 ER^D538G, 68%; in the experiment on MDA-MB-231 (144 h, 6 days), 37%. The IC50 in the experiment on MCF-7 ER^D538G stood at 761 nM.
For the compound `CCN(CCOCCOCCNc1cccc2c1CN(C1CCC(=O)NC1=O)C2=O)CCOc1ccc(Oc2c(-c3ccc(S(C)(=O)=O)cc3)ccc3cc(O)ccc23)cc1` (centres unmarked) [Compound D26, 3-(4-((2-(2-(2-(ethyl(2-(4-((6-hydroxy-2-(4-(methylsulfonyl)phenyl)naphthalen-1-yl)oxy)phenoxy)ethyl)amino)ethoxy)ethoxy)ethyl)amino)-1-oxoisoindolin-2-yl)piperidine-2,6-dione], the inhibition at up to 10 µM in the experiment with MCF-7 worked out at 55%; with MDA-MB-468 (144 h, 6 days), 37%; in the experiment with MCF-7 ER^D538G, 75%; in the experiment on MCF-7 ER^Y537S, 43%; in the experiment with TamR-MCF-7, 35%.
Take `CCN(CCOCCOCCOCCNc1cccc2c1C(=O)N(C1CCC(=O)NC1=O)C2=O)CCOc1ccc(Oc2c(-c3ccc(S(C)(=O)=O)cc3)ccc3cc(O)ccc23)cc1` (centres unmarked) [Compound D39, 2-(2,6-dioxopiperidin-3-yl)-4-((3-ethyl-1-(4-((6-hydroxy-2-(4-(methylsulfonyl)phenyl)naphthalen-1-yl)oxy)phenoxy)-6,9,12-trioxa-3-azatetradecan-14-yl)amino)isoindoline-1,3-dione]: the inhibition at up to 10 µM was 35% in the experiment with MCF-7; 51% in the experiment with MDA-MB-468 (144 h, 6 days); 73% in the experiment on MCF-7 ER^D538G; 48% with MCF-7 ER^Y537S; 32% with TamR-MCF-7. In the experiment on MCF-7 ER^D538G, this compound gave an IC50 of 158 nM.
As for `CCN(CCOCCOCCN1CCN(c2cccc3c2CN(C2CCC(=O)NC2=O)C3=O)CC1)CCOc1ccc(Oc2c(-c3ccc(S(C)(=O)=O)cc3)ccc3cc(O)ccc23)cc1` (centres unmarked) [Compound D40], the inhibition at up to 10 µM came out at 34% in the experiment with MCF-7; 71% in the experiment with MDA-MB-468 (144 h, 6 days); 72% in the experiment with MCF-7 ER^D538G; 61% in the experiment with MCF-7 ER^Y537S; 31% with TamR-MCF-7.
As for `CCN(CCOCCOCCNc1ccc2c(c1)C(=O)N(C1CCC(=O)NC1=O)C2=O)CCOc1ccc(Oc2c(-c3ccc(S(C)(=O)=O)cc3)ccc3cc(O)ccc23)cc1` (centres unmarked) [Compound D45], the inhibition at up to 10 µM in the experiment on MCF-7 was 35%; in the experiment on MCF-7 ER^D538G, 75%; in the experiment with MCF-7 ER^Y537S, 44%; in the experiment with TamR-MCF-7, 33%. In addition, the IC50 with MCF-7 ER^D538G turned out to be 198 nM.
For the compound `CNC(=O)c1ccc(-c2ccc3cc(O)ccc3c2Oc2ccc(OCCN3CCN(c4ccc5c(c4)CN(C4CCC(=O)NC4=O)C5=O)CC3)cc2)cc1` (centres unmarked) [Compound D64, 4-(1-(4-(2-(4-(2-(2,6-dioxopiperidin-3-yl)-1-oxoisoindolin-5-yl)piperazin-1-yl)ethoxy)phenoxy)-6-hydroxynaphthalen-2-yl)-N-methylbenzamide], in the experiment on MDA-MB-468 (setting [1]), half-maximal inhibition (IC50) required 19.3 nM and the inhibition at up to 10 µM was determined as 87%. Also, in the experiment on MDA-MB-231 (setting [1]), the IC50 amounted to 9.8 nM and the inhibition at up to 10 µM is 79.8%.
The like results for `O=C1CCC(N2Cc3cc(N4CCN(CCOc5ccc(Oc6c(-c7ccc(C(=O)N8CCCC8)cc7)ccc7cc(O)ccc67)cc5)CC4)ccc3C2=O)C(=O)N1` (centres unmarked) [Compound D65, 3-(5-(4-(2-(4-((6-hydroxy-2-(4-(pyrrolidine-1-carbonyl)phenyl)naphthalen-1-yl)oxy)phenoxy)ethyl)piperazin-1-yl)-1-oxoisoindolin-2-yl)piperidine-2,6-dione] were, in that order, 29 nM, 83.6%, 3.6 nM and 83.6%.
The like results for `CS(=O)(=O)c1ccc(-c2ccc3ccccc3c2Oc2ccc(OC(=O)N3CCN(c4ccc5c(c4)CN(C4CCC(=O)NC4=O)C5=O)CC3)cc2)cc1` (centres unmarked) [Compound D66, 4-((2-(4-(methylsulfonyl)phenyl)naphthalen-1-yl)oxy)phenyl 4-(2-(2,6-dioxopiperidin-3-yl)-1-oxoisoindolin-5-yl)piperazine-1-carboxylate] were, in that order, 2.2 nM, 90.6%, 1.4 nM and 85.4%.

For the origin of these results see US20240131168A1, “NAPHTHALENE RING-CONTAINING COMPOUND, PHARMACEUTICAL COMPOSITION CONTAINING SAME, AND USE THEREOF” (JIANGSU YAHONG MEDITECH CO., LTD., priority 2021, published 2024).
